One test concerns the target T1, TMEM16A (acd) (Homo sapiens, UniProt Q5XXA6).
T1 sequence (Q5XXA6 1-986): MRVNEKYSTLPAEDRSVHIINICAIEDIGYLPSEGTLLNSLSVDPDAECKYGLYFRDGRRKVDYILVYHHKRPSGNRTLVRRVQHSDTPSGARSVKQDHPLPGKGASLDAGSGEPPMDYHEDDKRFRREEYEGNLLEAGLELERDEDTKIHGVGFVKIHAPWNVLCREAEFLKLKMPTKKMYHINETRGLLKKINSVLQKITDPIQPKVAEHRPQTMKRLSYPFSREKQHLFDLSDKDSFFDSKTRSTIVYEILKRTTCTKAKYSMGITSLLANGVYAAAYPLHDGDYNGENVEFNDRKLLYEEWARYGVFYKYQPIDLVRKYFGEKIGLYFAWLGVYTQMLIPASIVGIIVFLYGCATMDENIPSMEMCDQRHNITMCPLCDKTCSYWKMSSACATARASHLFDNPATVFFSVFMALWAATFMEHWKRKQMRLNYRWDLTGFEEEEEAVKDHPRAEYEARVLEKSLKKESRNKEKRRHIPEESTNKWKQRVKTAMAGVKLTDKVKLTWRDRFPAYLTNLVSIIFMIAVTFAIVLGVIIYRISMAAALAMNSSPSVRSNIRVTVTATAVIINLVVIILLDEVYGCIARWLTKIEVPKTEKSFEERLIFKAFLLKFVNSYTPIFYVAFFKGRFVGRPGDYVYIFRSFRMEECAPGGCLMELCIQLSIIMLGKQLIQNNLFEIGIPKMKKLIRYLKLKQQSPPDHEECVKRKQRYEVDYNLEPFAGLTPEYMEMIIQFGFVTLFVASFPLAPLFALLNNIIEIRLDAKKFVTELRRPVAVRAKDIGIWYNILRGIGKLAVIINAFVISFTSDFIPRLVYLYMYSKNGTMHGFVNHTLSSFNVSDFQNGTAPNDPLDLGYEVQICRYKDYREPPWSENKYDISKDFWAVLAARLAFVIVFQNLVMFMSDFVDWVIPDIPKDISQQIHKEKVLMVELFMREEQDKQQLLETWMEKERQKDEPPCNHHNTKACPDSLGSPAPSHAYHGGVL
The experiment in a line: QPatch whole-cell electrophysiology, HEK293 TMEM16A (acd). It is filed as cell-based. The following applies: for effect on inward current at −100 mV, whole cell patch clamp: 170 nM free calcium, Vhold 0 mV; for IC50 / calcium-activated chloride current inhibited: QPatch; for IC50: outward current at +100 mV, 170 nM free intracellular calcium, ~60 s per concentration, read-out: TMEM16A Chloride Current (IC50); for calcium-activated chloride current inhibited: maximum antagonist activity; for time to achieve steady state block: single concentration. From the text:
HEK293 cells stably expressing the TMEM16A (acd) variant were purchased from SB Drug Discovery. The HEK293 TMEM16A (abc) stable cell line was from ChanTest and COLO-205 cells were purchased from ATCC. The same standard buffers and recording conditions listed below were used for QPatch studies on all three cell lines.
Recording Solutions: were made weekly as below and stored at room temperature until used. It is recommended not to add ATP to internal solution until immediately before using on the QPatch. The external buffer (in mM) was 140 NaCl, 4 KCl, 2 CaCl2, 1 MgCl2, 10 HEPES, 10 Glucose, pH7.4, while the internal buffer (in mM) was 110 CsCl, 20 TEA-Cl, 5.374 CaCl2, 1.75 MgCl2, 10 EGTA, 10 HEPES, 4 Na2ATP, pH 7.2.
Once established in whole-cell configuration, cells were clamped to a holding potential (Vhold) of 0 mV on 48 well single hole patch plate. A standardized IV protocol was used to elicit ionic current through the TMEM16A chloride channel at 20 s intervals. Steady-state voltage pulses were from −100 mV to +100 mV in +20 mV steps for a duration of 500 ms. After each pulse the voltage was returned to −100 mV for 50 ms to obtain tail currents, and then returned to the holding potential of 0 mV until the beginning of the next sweep. […] This ensures a minimum of 60 s per concentration incubation before measuring current block. Currents were acquired at 10 kHz and filtered at 2 kHz, leak subtraction and Rseries were disabled. A 1 MΩ minimum resistance was set because cells are held in an open channel state and therefore resistance is low.
A cumulative concentration response was measured where each cell is exposed to five concentrations of test article with a dilution factor of 1:5 (e.g., 0.048, 0.24, 1.2, 6, and 30 μM). Cells were recorded for ∼60 s per solution/compound addition. Initially, external solution is applied twice to allow currents to stabilize. Then vehicle (from the saline reservoir) is added twice to monitor any effect 0.3% DMSO might have on currents. This leads directly into the concentration runs by applying Concentration 1 (single addition) for 1 min. Concentration 2 is then applied for the subsequent minute, etc. Recovery/washout was monitored for a final minute with a final external solution addition.
[…] […] Each cell’s current magnitude was then normalized to itself at the initial 0.3% vehicle control period prior to compound application. This step is to account for differences in current size for each cell. Normalized responses to test article were plotted against their concentrations to reveal a concentration-inhibition plot.
A Normalized Group Hill fit was then performed on the plotted results to yield a pooled IC50 value, reconstructed from a minimum of two cells/concentration. The baseline response as well as the full response were constrained to 1 and 0, respectively.
For orientation: The patch-clamp technique gives a direct electrical read-out from membranes.

The next test has as its system mouse tracheal rings. The experiment in a line: Wire myograph bronchodilation of carbachol pre-contracted mouse tracheal rings. The following applies: for EC50: Mus musculus; for time to steady-state relaxation of mouse tracheal rings: EC75 carbachol; for onset of action: bronchodilating mouse airways, summary. As to the method:
The trachea from C57 BL/6 mice was dissected and collected in PBS with Mg^2+ and Ca^2+. After further trimming, two 2 mm sections (rings) per trachea were then placed in DMEM media containing PSG/HEPES/AA/NaPyr for 1 h and used immediately or maintained overnight at 37°C in a humidified incubator with 5% CO2. Rings were then mounted into chambers of DMT wire myograph containing L-shaped mounting pins with 2–3 mN of force applied to secure rings on the pins and the rings were allowed to equilibrate for 25–30 min in a physiological saline buffer (PSS, 130 mM NaCl, 4.7 mM KCl, 1.2 mM MgS04, 14.9 mM NaHCO3, 1.2 mM KH2PO4, 0.026 mM EDTA, 1.6 mM CaCl2, 5.5 mM Dextrose). Throughout the experiment, rings were maintained at physiological temperature and gas conditions by heating buffer reservoir and chamber to 37°C and bubbling a 95% O2, 5% CO2 gas mixture into chamber.
After equilibration, a standard tissue “Wake-Up” procedure was applied by altering tension and then treatment with elevated potassium as follows: 3 mN tension was applied for 5–10 min, then another 2–3 mN tension to total of 5.5 mN and then to 7–8 mN for another 5 min; the tissue pre-tension was then set to 5 mN and allowed to equilibrate for 5–10 min followed by the removal of the PSS buffer and addition of KPSS (60 mM KCl, 74.7 mM NaCl in PSS solution), with force changes monitored until they reached a plateau. The tissue was then washed four times with PSS over 5 min and the KPSS treatment and washes repeated; the tissue was then allowed to sit in PSS for 10 min and the tension was set to 5 mN.
The tissue was then washed three times and then three times more with PSS for 5 min until tension returned to baseline.
Only tissue that passed the qualification tests above advanced to studies on test article compounds. […] For standard ascending dose-response studies on TMEM16A antagonists, an EC75 or EC95 concentration of CCh was used to pre-contract tracheal rings.

Setting [1] is: carbachol pre-contracted, values marked † (footnote not given), read-out: Bronchodilation of Mouse Tracheal Rings (EC50).
Setting [2] is: carbachol pre-contracted, values marked § (footnote not given), read-out: Bronchodilation of Mouse Tracheal Rings (EC50).
Setting [3] is: pre-contracted with EC75 carbachol, average, read-out: EC50 relaxation of mouse tracheal rings.

Read-outs that look alike come from different tables or passages of the source.

In the case of `N#Cc1c(C(F)(F)F)cc(O)n2c1nc1ccccc12` [1PBC], on TMEM16A (acd), the “effect on inward current at −100 mV, whole cell patch clamp” value (“effect on inward current at −100 mV” below) is reported as “paradoxical increase”; the IC50 came to 2.81 ± 1.25 µM; the “calcium-activated chloride current inhibited” value is on record as “Over 80%”. For the same molecule, the EC50 in the test on mouse tracheal rings (setting [1]) is 1770 nM.

Regarding `CCc1oc2ccccc2c1C(=O)c1cc(Br)c(O)c(Br)c1` [Benzbromarone], at TMEM16A (acd), the “effect on inward current at −100 mV” value is “inhibited” and the IC50 stood at 4.09 ± 2.08 µM. In addition, the “time to steady-state relaxation of mouse tracheal rings” value (shortened to “time to steady-state relaxation”) in the test on mouse tracheal rings (1 μM) lay in the range of 40 to 60 min. The EC50 with mouse tracheal rings (setting [1]) is 1280 ± 211 nM. Besides, the concentration for a half-maximal effect (EC50) with mouse tracheal rings (pre-contracted with EC75 carbachol, read-out: EC50 relaxation of mouse tracheal rings) came out at 1280 nM. This molecule also registered an onset of action with mouse tracheal rings of 17 to 60 min.

Regarding `CC(C)(C)C1CCc2c(sc(NC(=O)c3ccco3)c2C(=O)O)C1` (centres unmarked) [CaCCinh-A01], the EC50 in the test with mouse tracheal rings (setting [1]) was 13500 nM.

For the molecule `O=C(Nc1ccc([N+](=O)[O-])cc1)c1cc(Cl)ccc1O` [Cpd 2], the EC50 with mouse tracheal rings (setting [2]) was 585 nM; in the test with mouse tracheal rings (setting [1]) it was 483 nM.

Regarding `O=C(Nc1ccc([N+](=O)[O-])cc1)c1cc(Cl)c2ccccc2c1O` [Cpd 3], on TMEM16A (acd), the “effect on inward current at −100 mV” value is “no significant effect” and the IC50 is 0.61 ± 0.62 µM. Further, the EC50 with mouse tracheal rings (setting [2]) came out at 606 ± 3 nM.

With `COc1cc([N+](=O)[O-])ccc1NC(=O)c1cc(Cl)c2ccccc2c1O` [Cpd 4], the “effect on inward current at −100 mV” value at TMEM16A (acd) is given as “no significant effect”. For the same molecule, the IC50 at TMEM16A (acd) was 0.62 ± 0.37 µM. Besides, in the test on mouse tracheal rings (316 nM), the “time to steady-state relaxation” value was 25 to 45 min. The EC50 in the test on mouse tracheal rings (setting [1]) is 467 ± 167 nM; in the test on mouse tracheal rings (setting [3]), roughly 332 nM. Moreover, in the test with mouse tracheal rings, the onset of action lay in the range of 17 to 60 min.

Take `O=C(Nc1ccc(Cl)cc1)c1cc(Cl)ccc1O` [Cpd 5]: the IC50 at TMEM16A (acd) is 2.26 ± 0.65 µM. In addition, in the test on mouse tracheal rings (setting [1]), the EC50 worked out at 1120 nM.

Consider `Oc1ccc(Cl)cc1Cc1cc(Cl)ccc1O` [Dichlorophen], for which the IC50 on TMEM16A (acd) amounted to 4.66 ± 2.2 µM. For the same molecule, the half-maximal effective concentration (EC50) in the test with mouse tracheal rings (setting [1]) came to 2010 nM.

For the molecule `COc1cc(Nc2ccc([N+](=O)[O-])cc2C(=O)O)cc2ccccc12` [MONNA], at TMEM16A (acd), the “effect on inward current at −100 mV” value is listed as “inhibited” and the IC50 stood at 13.6 ± 9.76 µM. Further, the EC50 in the test with mouse tracheal rings (setting [1]) was 3020 nM.

`O=C(Nc1ncc([N+](=O)[O-])s1)c1cccs1` [NTTP]: the IC50 on TMEM16A (acd) was 4.69 µM. Besides, the EC50 in the test with mouse tracheal rings (setting [2]) was 7610 nM.

Take `O=C(Nc1ccc([N+](=O)[O-])cc1Cl)c1cc(Cl)ccc1O` [Niclosamide]: at TMEM16A (acd), the “effect on inward current at −100 mV” value was “paradoxical increase”; the IC50 came to 2.37 ± 2.11 µM; the “calcium-activated chloride current inhibited” value is recorded as “Over 80%”. The “time to achieve steady state block” value on TMEM16A (acd) (1.11 μM) was “about 10 min”. In addition, the “time to achieve steady state block” value on TMEM16A (acd) (3.3 μM) is on record as “approximately 4 min”. Moreover, the “time to steady-state relaxation” value with mouse tracheal rings (1 μM) lay in the range of 17 to 35 min. Besides, the EC50 in the test with mouse tracheal rings (setting [1]) was 379 ± 82 nM. In the test with mouse tracheal rings (setting [3]), the EC50 is 365 nM. In the test with mouse tracheal rings, this molecule registered an onset of action of 17 to 60 min.

`O=C(O)c1cccnc1Nc1cccc(C(F)(F)F)c1` [Niflumic Acid]: on TMEM16A (acd), the “effect on inward current at −100 mV” value is listed as “stimulating” and the IC50 was determined as 8.54 ± 6.75 µM. For the same molecule, the EC50 with mouse tracheal rings (setting [1]) came out at 51200 nM.

Consider `CCc1c(C)nc(SCC(=O)Nc2nc(-c3ccc(OC)cc3)cs2)[nH]c1=O` [T16Ainh-A01], for which, on TMEM16A (acd), the IC50 was greater than 30 µM. Further, the 50% effective concentration (EC50) with mouse tracheal rings (setting [1]) is greater than 50000 nM.

On to `O=C(Nc1ncc([N+](=O)[O-])s1)c1ccccc1O` [Tizoxanide], for which the IC50 on TMEM16A (acd) amounted to 4.42 ± 2.4 µM. Moreover, the EC50 with mouse tracheal rings (setting [1]) was determined as 3900 nM.

Usually IC50 stands for the concentration needed to halve the response being measured. One may read the EC50 as the midpoint of the concentration-response curve.

Source of the values: PMC6382696, “Drug Repurposing: The Anthelmintics Niclosamide and Nitazoxanide Are Potent TMEM16A Antagonists That Fully Bronchodilate Airways” (Frontiers in Pharmacology, 2019).
